Results on twelve compounds are retold here after US11912691B2, “Tocotrienols derivates, methods and uses thereof” (GLOBAL SCIENTIFIC, priority 2020, dated 2024).

The conditions of data set [1]: for Rank of the nicotinic acid level in the permeate solutions: within molecules without a linker / within molecules with a linker. The protocol: In an embodiment, the penetration into human skin and the conversion of the modified tocotrienols and modified α-tocotrienols with linkers molecules in the human skin were evaluated by permeation experiments using Franz diffusion cells. The conversion profile was evaluated and quantified by measuring nicotinic acid or nicotinyl alcohol in the permeate solutions.
In an embodiment, the skin permeation of the modified compounds was assessed. The permeation tests were performed with full thickness human skin. These samples were obtained at a local hospital, from healthy donors undergoing cosmetic surgery. The excised skin was stored in a PBS solution containing 10% antibiotic and maintained at 4° C., until further processing in the laboratory. When the skin sample was received, the underlying fat tissue was removed and discarded. The remaining skin (dermis and epidermis layers) was cut into pieces of approximately 1.5×1.5 cm. When the permeation experiments were executed with fresh skin, the samples were immediately used. Otherwise, the pre-cut skin samples were frozen at −80° C. and stored for further use. When reclaiming the frozen skin samples, the samples were removed from storage and thawed to room temperature for 1 hour before further manipulation.
The permeation experiments were performed in Franz diffusion cells. These diffusion cells are constituted by a donor compartment, where the formulation containing the permeate molecule is placed, and a receptor compartment containing the receptor fluid where the permeate molecule is collected and accumulated in time. The skin sample is placed between the donor and receptor compartments and is also equipped with a sampling access that allows for the collection of samples (a certain volume of the receptor fluid) without requiring the disassembly of the cell and therefore allows for the permeation experiment to continue (FIG. 3).
At the start of the experiment, the receptor compartment is filled with the receptor fluid, the skin sample is placed in place with care so as to not form air bubbles underneath. The donor receptor is positioned in place and clamped. The assembly is then placed in the thermostatic (37° C.) bath for 30 min to allow temperature equilibration. After the equilibration time, the level of the receptor fluid is adjusted as necessary. The receptor compartment is equipped with a magnetic mixer, ensuring the solution homogeneity during the course of the permeation experiment.
In an embodiment, the permeate solutions are monitored for the presence of nicotinic acid released from the modified tocopherol and tocotrienols molecules. The amount of nicotinic acid is quantified by HPLC using an ion pairing method. The concentration of nicotinic acid is calculated from a standard calibration curve of known nicotinic acid concentration solutions measured in the same conditions. The HPLC analysis is performed on a Knauer chromatograph consisting of 3 modules: Smartline manager 5000, Smartline pump 1000 and Smartline UV Detector 2600. The UV detector is fitted with a photodiode array (PDA) which allows for the continuous monitoring from 190-450 nm. The online chromatograms are monitored at 254 nm. The eluent comprises an ion-pairing eluent (50 mM of tetrabutylammonium hydroxide (TBAOH), pH corrected to 7.4 with hydrogenphosphate dibasic ([…])) containing 10% of acetonitrile at a flow of 1 mL/min and the column used is an Atlantis T3 4.6×250 mm (with guard column of same type 4.6×20 mm) at 30° C.
In an embodiment, the skin permeation experiments are performed with formulations of different concentrations of modified tocotrienol and tocopherol molecules. The modified molecules are dissolved at concentrations of 5% and 10% m/m in a mixture of equal volumes of 2-(2-ethoxyethoxy)ethanol and propylene glycol and 150 μl of these solutions are applied on the skin samples.

Data set [2] is described as follows: Chemical stability in a cosmetic formulation, accelerated aging test (45° C., 3 months). The note with it: for % of the Compound after 3 Months: 0.1% m/m in cosmetic formulation, oven at 45° C., HPLC; for Stability in the cosmetic formulation (in words): 45° C., ferulyl compound also in cold storage; for % of the Compound after 3 Months / Stability in the cosmetic formulation (in words): 3 months. How it is done:
In an embodiment, the chemical stability of the modified molecules was evaluated in accelerated degradation tests. For this purpose, the test molecules were formulated in a cosmetic relevant formulation and its degradations were assessed for a period of 3 months.
In an embodiment, the cosmetic formulation may comprise water, jojoba seed oil, butylene glycol, squalane, sodium hyaluronate, cetearyl alcohol and a carbomer.
In an embodiment, test molecules were added to the cosmetic formulation at 0.1% m/m level, thoroughly homogenized to ensure uniform dispersion and stored in closed glass bottles in an oven at 45° C. for 3 months. In order to evaluate homogeneity and stability, 3 samples were collected from random positions immediately after preparation and at each time point evaluated. The quantification of the test molecules was performed by HPLC.
In an embodiment, the preparation of the mixtures for evaluation of the stability was performed according to the following experimental protocol. The mass of compound was weighed and dissolved in 2-(2-ethoxyethoxy)ethanol (also weighed) and added to a known mass of moisturizer product. The mixture was homogenized, and 3 samples were collected to confirm homogenous distribution and initial concentration of modified molecules. The mixtures were then stored in an oven at 45° C. for 3 months (Table IV).
In an embodiment, the stability of the test molecules in the cosmetic formulation was determined. The test mixtures were sampled in triplicate from random zones. The samples were prepared for analysis by solubilizing them in acetonitrile and the quantification of the modified and non-modified tocopherol and tocotrienol molecules was performed by HPLC. The % of the initial compounds is described in Table IV.

Setting [3] is: modified α-tocotrienols with linkers, donor solution 10% m/m, 24 hours.
Where [4] appears, read: modified α-tocotrienols with linkers, donor solution 10% m/m, 48 hours.
Where [5] appears, read: donor solution 5% m/m, 48 hours, human skin, Franz cell.
Where [6] appears, read: donor solution 10% m/m, 48 hours, human skin, Franz cell.

“Also recorded” adds a separate entry of the source. Like-named read-outs stand apart in the source and are kept apart here.

In the case of `CC(C)=CCC/C(C)=C/CC/C(C)=C/CCC1(C)CCc2c(C)c(OC(=O)CNC(=O)c3cccnc3)c(C)c(C)c2O1` (stereo not drawn) [α-tocotrienyl glycinyl nicotinate], the “Concentration of nicotinic acid in the permeate solution” value (from here on “Concentration of nicotinic acid”) in data set [1] (setting [3]) was determined as 180 ng/mL. Further, the “Concentration of nicotinic acid” value in data set [1] (setting [4]) amounted to 380 ng/mL. Also, in data set [2], the “% of the Compound after 3 Months” value is given as ≥95% and the “Stability in the cosmetic formulation (in words)” value (“Stability” below) is recorded as “excellent stability”.

Consider `CC(C)=CCCC(C)=CCCC(C)=CCCC1(C)CCc2c(C)c(OC(=O)CCC(=O)OCc3cccnc3)c(C)c(C)c2O1` (stereo not drawn) [α-tocotrienyl nicotinyl succinate], for which, in data set [2], the “Remaining fraction of the initial mass after 3 months of accelerated aging” value was > 95% and the “% of the Compound after 3 Months” value is reported as ≥95%.

For `CC(C)=CCC/C(C)=C/CC/C(C)=C/CCC1(C)CCc2c(C)c(OC(=O)c3cccnc3)c(C)c(C)c2O1` (stereo not drawn) [α-tocotrienyl nicotinate], the “Concentration of nicotinic acid” value in data set [1] (donor solution 5% m/m, 24 hours, human skin, Franz cell) came to 320 ng/mL; in data set [1] (donor solution 5% m/m, 33 hours, human skin, Franz cell), 540 ng/mL; in data set [1] (setting [5]), 890 ng/mL; in data set [1] (setting [6]), 2830 ng/mL. The “Rate of conversion into the parent molecules relative to the other modified tocotrienols” value in data set [1] (human skin) is given as “higher rate”. Besides, the “Release of nicotinic acid relative to α-tocopheryl nicotinate” value in data set [1] (human skin, Franz cell) was “faster”. In addition, the “Release of nicotinic acid relative to γ-tocotrienyl nicotinate or δ-tocotrienyl nicotinate” value in data set [1] (human skin, Franz cell) is “three times faster”. Further, the “Rank of the nicotinic acid level in the permeate solutions” value in data set [1] is reported as “highest level”. Further, the “% of the Compound after 3 Months” value in data set [2] was ≥95%.

Consider `CC(C)=CCC/C(C)=C/CC/C(C)=C/CC[C@]1(C)CCc2cc(O)c(C)c(C)c2O1` [γ-tocotrienol, reference compound], for which, in data set [2], the “% of the Compound after 3 Months” value is listed as 20%.

`CC(C)=CCC/C(C)=C/CC/C(C)=C/CCC1(C)CCc2cc(OC(=O)c3cccnc3)c(C)c(C)c2O1` (stereo not shown) [γ-tocotrienyl nicotinate]: the “Concentration of nicotinic acid” value amounted to 90 ng/mL in data set [1] (setting [5]) and 700 ng/mL in data set [1] (setting [6]). The “% of the Compound after 3 Months” value in data set [2] is on record as ≥95%.

Take `CC(C)=CCCC(C)=CCCC(C)=CCCC1(C)CCc2cc(OC(=O)c3cccnc3)cc(C)c2O1` (stereo not shown) [δ-tocotrienyl nicotinate]: in data set [2], the “% of the Compound after 3 Months” value is listed as ≥95%.

Consider `CC(C)=CCC/C(C)=C/CC/C(C)=C/CC[C@]1(C)CCc2cc(O)cc(C)c2O1` [δ-tocotrienol, reference compound], for which, in data set [2], the “% of the Compound after 3 Months” value is 57%.

Regarding `Cc1c(C)c2c(c(C)c1OC(=O)c1cccnc1)CC[C@@](C)(CCC[C@H](C)CCC[C@H](C)CCCC(C)C)O2` [α-tocopheryl nicotinate, reference compound], in data set [2], the “% of the Compound after 3 Months” value was ≥95%.

As for `CC(C)=CCC/C(C)=C/CC/C(C)=C/CC[C@]1(C)CCc2c(C)c(O)c(C)c(C)c2O1` [α-tocotrienol, reference compound], the “% of the Compound after 3 Months” value in data set [2] was 53%.

For the compound `Cc1c(C)c2c(c(C)c1O)CC[C@@](C)(CCC[C@H](C)CCC[C@H](C)CCCC(C)C)O2` [α-tocopherol, reference compound], the “% of the Compound after 3 Months” value in data set [2] is listed as 44%.

Take `COc1cc(/C=C/C(=O)Oc2c(C)c(C)c3c(c2C)CCC(C)(CC/C=C(\C)CC/C=C(\C)CCC=C(C)C)O3)ccc1OC(=O)c1cccnc1` (stereo not drawn) [α-tocotrienyl ferulyl nicotinate]: the “Concentration of nicotinic acid” value in data set [1] (setting [3]) was 1190 ng/mL. The “Concentration of nicotinic acid” value in data set [1] (setting [4]) was determined as 2960 ng/mL. Also, in data set [2], the “% of the Compound after 3 Months” value is 0% and the “Stability” value was “unstable even in cold storage conditions; also recorded: not stable”.

In the case of `CC(C)=CCC/C(C)=C/CC/C(C)=C/CCC1(C)CCc2c(C)c(OC(=O)COC(=O)c3cccnc3)c(C)c(C)c2O1` (stereo not drawn) [α-tocotrienyl glycolyl nicotinate], the “Rate of conversion into the parent molecules relative to the other modified tocotrienols” value in data set [1] (human skin) was “higher rate”. In addition, in data set [1] (setting [3]), the “Concentration of nicotinic acid” value worked out at 3020 ng/mL. In addition, the “Concentration of nicotinic acid” value in data set [1] (setting [4]) stood at 8180 ng/mL. The “Rank of the nicotinic acid level in the permeate solutions” value in data set [1] is “highest level”. In data set [2], the “% of the Compound after 3 Months” value is ≥95% and the “Stability” value is on record as “excellent stability”.
